Converted amounts (≈) assume the structure as drawn. Read-outs that look alike come from different tables or passages of the source.
What was measured:
[1] = system: Salmonella, other 49 serotypes; assay: Disk diffusion, food isolates Spain; type: cell-based; details: n = 115
[2] = system: Salmonella serotype Typhimurium; assay: Disk diffusion, food isolates Spain; type: cell-based; details: n = 53
[3] = system: N.gonorrhoeae; assay: microbe, parasite or virus in culture; type: cell-based; details: Neisseria gonorrhoeae
[4] = system: Salmonella spp.; assay: Agar dilution susceptibility, gastroenteritis isolates Cuba; type: cell-based; details: 34 strains, 2002
[5] = system: Salmonella serotype Enteritidis; assay: Disk diffusion, food isolates Spain; type: cell-based; details: n = 96
[6] = system: C. albicans; assay: Antifungal susceptibility; type: cell-based, Candida albicans
[7] = system: C. parapsilosis; assay: Antifungal susceptibility; type: cell-based, Candida parapsilosis
[8] = system: Escherichia coli O157:H7; assay: Kirby-Bauer susceptibility; type: cell-based; details: 30 strains, 1990–2003
[9] = system: S. pneumoniae (SPN); assay: SENTRY Brazil, NCCLS broth microdilution; type: cell-based, Streptococcus pneumoniae
[10] = system: H. influenzae (HI); assay: SENTRY Brazil, NCCLS broth microdilution; type: cell-based, Haemophilus influenzae
[11] = system: Acinetobacter; assay: Disk diffusion; type: cell-based; details: 37 isolates selected as resistant to beta-lactams
[12] = system: nontyphoidal Salmonella; assay: Agar dilution, isolates from chickens 1998–2004; type: cell-based, Salmonella spp.
[13] = system: Pseudomonas aeruginosa (PSA); assay: Vitek 2 susceptibility, urine isolates of children; type: cell-based; details: both departments
[14] = system: S. pneumoniae; assay: Broth microdilution; type: cell-based, Streptococcus pneumoniae; details: 275 isolates
[15] = system: H. influenzae; assay: Broth microdilution; type: cell-based, Haemophilus influenzae; details: 267 isolates
[16] = system: Shigella spp.; assay: Disk diffusion, stool isolates Tehran; type: cell-based; details: 96 isolates
[17] = system: MSSA; assay: Agar dilution MIC; type: cell-based, Staphylococcus aureus
[18] = system: biofilms of S. aureus (SA204 and SA195) and S. epidermidis (ATCC35983 and ATCC35984); assay: Antibiotic lock, in vitro biofilm on polyurethane film, viable counts; type: cell-based, Staphylococcus species; details: any of the time intervals examined
[19] = system: viridans group streptococci (VGS); assay: MIC; type: cell-based
[20] = system: Pseudomonas aeruginosa; assay: MIC, strains from cystic fibrosis patients; details: by MIC
[21] = system: Enterococcus sp; assay: Sensitivity of CAP pathogens with/without antibiotic pretreatment; type: cell-based
[22] = system: Staph. coaq (−); assay: as above; type: cell-based, coagulase-negative Staphylococcus
[23] = system: H. influenzae; assay: as above; type: cell-based, Haemophilus influenzae
[24] = system: pathogens in community acquired pneumonia of different severity; assay: Sensitivity of CAP pathogens by Fine severity group; type: cell-based
[25] = system: Other Haemophilus sp.; assay: Sensitivity of CAP pathogens with/without antibiotic pretreatment; type: cell-based
[26] = system: Nocardia spp.; assay: E-test on Mueller Hinton agar, 81 clinical isolates; type: cell-based; details: Nocardia
[27] = system: E. coli; assay: Sensitivity of CAP pathogens with/without antibiotic pretreatment; type: cell-based, Escherichia coli
[28] = system: S. aureus; assay: as above; type: cell-based, Staphylococcus aureus
[29] = system: Kl. pneumoniae; assay: as above; type: cell-based, Klebsiella pneumoniae
[30] = system: Other non-fermenting bacteria; assay: as above; type: cell-based
[31] = system: Other Enterobacteriacae; assay: as above; type: cell-based, Enterobacteriaceae
[32] = system: S. pneumoniae; assay: E-test MIC, children with URTI, Brazil; type: cell-based, Streptococcus pneumoniae
[33] = system: Total pathogens in community acquired pneumonia; assay: Sensitivity of CAP pathogens with/without antibiotic pretreatment; type: cell-based
[34] = system: S. -pneumoniae; assay: as above; type: cell-based, Streptococcus pneumoniae
[35] = system: S. pneumoniae; assay: PROTEKT Italy, NCCLS microdilution; type: cell-based, Streptococcus pneumoniae
[36] = system: P. aeruginosa; assay: Sensitivity of CAP pathogens with/without antibiotic pretreatment; type: cell-based, Pseudomonas aeruginosa; details: Abs. 3
[37] = system: S. pyogenes; assay: as above; type: cell-based, Streptococcus pyogenes; details: Abs. 4
[38] = system: Escherichia coli
[39] = Belgian collection (caecal samples; Belgium, France, Netherlands)

## CN[C@@H]1[C@H](O)[C@H](NC)[C@H]2O[C@@]3(O)C(=O)C[C@@H](C)O[C@H]3O[C@@H]2[C@H]1O [spectinomycin]
[1]
  resistance rate (NCCLS M100-S13): 100%
[2]
  resistance rate (NCCLS M100-S13): 87%
[3]
  MIC: 16 µg/mL (≈ 48.1 µM)
[3]; strain 76mu6
  MIC: 16 µg/mL (≈ 48.1 µM)
[3]; strain 76mu10
  MIC: 8 µg/mL (≈ 24.1 µM)
[3]; strain 92mu6
  MIC: 8 µg/mL (≈ 24.1 µM)
[3]; strain 92mu13
  MIC: 4 µg/mL (≈ 12 µM)
[4]
  resistance: 50%
[5]
  resistance rate (NCCLS M100-S13): 99%

## C[C@@H]1[C@H](O)[C@@H](C)/C=C/C=C/CC/C=C/C=C/C=C/C=C/C(O[C@H]2O[C@H](C)[C@@H](O)[C@H](N)[C@@H]2O)CC2O[C@](O)(CC(O)C(O)CCC(O)CC(O)CC(O)CC(=O)O[C@H]1C)CC(O)C2C(=O)O (stereo partly drawn) [nystatin]
[6]
  intermediate susceptibility: 2%
  resistance: 2%
[7]
  resistant: 10%

## O=C(N[C@H](CO)[C@H](O)c1ccc([N+](=O)[O-])cc1)C(Cl)Cl [chloramphenicol]
[8]
  resistant strains: 6%
[9]; 1998
  % S: 99%
[9]; 1999
  % S: 98%
[9]; 2000
  % S: 99%
[9]; 2001
  % S: 100%
[9]; 2002
  % S: 99%
[9]; 2003
  % S: 100%
[10]; 1998
  % S: 96%
[10]; 1999
  % S: 99%
[10]; 2000
  % S: 97%
[10]; 2001
  % S: 95%
[10]; 2002
  % S: 93%
[10]; 2003
  % S: 96%
[4]
  resistance: 41%
[11]
  resistant isolates: 100.0%
[12]; [39]
  resistance: 8%
[12]; Germany (carcass meat)
  resistance: 4%

## NC[C@H]1O[C@H](O[C@H]2[C@H](O)[C@@H](O[C@H]3O[C@H](CO)[C@@H](O)[C@H](N)[C@H]3O)[C@H](N)C[C@@H]2N)[C@H](O)[C@@H](O)[C@@H]1O [kanamycin]
[8]
  resistant strains: 3.3%

## CC1(C)S[C@@H]2[C@H](NC(=O)[C@H](C(=O)O)c3ccsc3)C(=O)N2[C@H]1C(=O)O [ticarcillin]
[13]
  Susceptible isolates: 74-100%
[11]
  resistant isolates: 86.5%

## N[C@@H](C(=O)N[C@@H]1C(=O)N2C(C(=O)O)=C(Cl)CS[C@H]12)c1ccccc1 [cefaclor]
[14]
  Susceptibility: 82.5%
[15]
  susceptible: 92.1%

## Cc1nnc(SCC2=C(C(=O)O)N3C(=O)[C@@H](NC(=O)Cn4cnnn4)[C@H]3SC2)s1 [cefazolin]
[16]
  sensitive: 80%
[17]; Staphylococcus aureus, MSSA
  MIC50: < 0.5 µg/mL
  MIC90: < 1 µg/mL
[17]; n = 200
  MIC range: 250 to 1000 µg/mL
[18]
  significant biofilm killing: not achieved

## CC=CC1=C(C(=O)O)N2C(=O)[C@@H](NC(=O)[C@H](N)c3ccc(O)cc3)[C@H]2SC1 [cefprozil]
[14]
  Susceptibility: 87.3%
[15]
  susceptible: 93.3%

## CCOc1ccc2ccccc2c1C(=O)N[C@@H]1C(=O)N2[C@@H]1SC(C)(C)[C@@H]2C(=O)O [nafcillin]
[18]
  significant biofilm killing: not achieved

## Clc1ccc(COC(Cn2ccnc2)c2ccc(Cl)cc2Cl)cc1 (stereo not drawn) [econazole]
[6]
  intermediate susceptibility: 2%
[7]
  resistant and intermediate susceptibility: 63%

## NCC[C@H](O)C(=O)N[C@@H]1C[C@H](N)[C@@H](O[C@H]2O[C@H](CN)[C@@H](O)[C@H](O)[C@H]2O)[C@H](O)[C@H]1O[C@H]1O[C@H](CO)[C@@H](O)[C@H](N)[C@H]1O [AM, amikacin]
[19]
  MIC50: 0.12 µg/mL (≈ 0.205 µM)
  MIC90: 1 µg/mL (≈ 1.71 µM)
[13]
  Susceptible isolates: 74-100%
[12]; [39]
  resistance: 46%
[12]; Germany (carcass meat)
  resistance: 16%

## Clc1ccc(COC(Cn2ccnc2)c2ccc(Cl)cc2Cl)c(Cl)c1 (stereo not drawn) [miconazole]
[6]
  susceptibility of all tested strains: susceptible
[7]
  resistant and intermediate susceptibility: 50%

## C[C@@H]1[C@H](O)[C@@H](C)/C=C/C=C/C=C/C=C/C=C/C=C/C=C/[C@H](O[C@@H]2O[C@H](C)[C@@H](O)[C@H](N)[C@@H]2O)C[C@@H]2O[C@](O)(C[C@@H](O)C[C@@H](O)[C@H](O)CC[C@@H](O)C[C@@H](O)CC(=O)O[C@H]1C)C[C@H](O)[C@H]2C(=O)O [amphotericin B]
[6]
  susceptibility of all tested strains: susceptible
[7]
  resistant: 10%

## colistin methanesulfonate
[20]
  Susceptible isolates: 98%

## CC1(C)S[C@@H]2[C@H](NC(=O)[C@H](N)c3ccc(O)cc3)C(=O)N2[C@H]1C(=O)O [amoxicillin]
[21]; after pretreatment, Abs. 0
  % of sensitive strains: 0.0%
[21]; without pretreatment, Abs. 1
  % of sensitive strains: 100.0%
[22]; after pretreatment, Abs. 2
  % of sensitive strains: 50.0%
[22]; without pretreatment, Abs. 4
  % of sensitive strains: 50.0%
[23]; after pretreatment, Abs. 10
  % of sensitive strains: 80.0%
[23]; without pretreatment, Abs. 26
  % of sensitive strains: 88.5%
[24]; higher severity group (Fine scores >70)
  sensitivity, total strains: 55,8%
[24]; lower severity group (Fine scores <70)
  sensitivity, total strains: 64.8%
[14]
  Susceptibility: 99.3%
[25]; after pretreatment, Abs. 11
  % of sensitive strains: 90.9%
[25]; without pretreatment, Abs. 21
  % of sensitive strains: 90.5%
[26]
  MIC50: 12 µg/mL (≈ 32.8 µM)
  MIC90: 32 µg/mL (≈ 87.6 µM)
[27]; after pretreatment, Abs. 1
  % of sensitive strains: 100.0%
[27]; without pretreatment, Abs. 5
  % of sensitive strains: 60.0%
[28]; after pretreatment, Abs. 4
  % of sensitive strains: 0.0%
[28]; without pretreatment, Abs. 11
  % of sensitive strains: 9.1%
[29]; after pretreatment, Abs. 5
  % of sensitive strains: 0.0%
[29]; without pretreatment, Abs. 4
  % of sensitive strains: 0.0%
[30]; after pretreatment, Abs. 0
  % of sensitive strains: 0.0%
[30]; without pretreatment, Abs. 1
  % of sensitive strains: 0.0%
[31]; after pretreatment, Abs. 5
  % of sensitive strains: 20.0%
[31]; without pretreatment, Abs. 2
  % of sensitive strains: 50.0%
[32]; 137 isolates
  resistant (R): 0.7%
[32]; Streptococcus pneumoniae, read-out: MIC of the one resistant isolate
  MIC: 3 µg/mL
[33]; after pretreatment, Abs. 48
  % of sensitive strains: 54.2%
[33]; without pretreatment, Abs. 95
  % of sensitive strains: 69.5%
[34]; after antibiotic pretreatment, Abs. 3
  % of sensitive strains: 66.7%
[34]; without antibiotic pretreatment, Abs. 13
  % of sensitive strains: 92.3%
[35]; year 1: 2002
  susceptible: 93.8%
[35]; year 2: 2003
  susceptible: 96.6%
[36]; after pretreatment
  % of sensitive strains: 0.0%
[36]; without pretreatment
  % of sensitive strains: 0.0%
[37]; after pretreatment
  % of sensitive strains: 75.0%
[37]; without pretreatment
  % of sensitive strains: 100.0%

## COc1cc(Cc2cnc(N)nc2N)cc(OC)c1OC [trimethoprim]
[38]; 1993, E.coli resistant to ampicillin
  resistance: 28%
[38]; 1993, E.coli sensitive to ampicillin
  resistance: 3%
[38]; 2003, E.coli resistant to ampicillin
  resistance: 43%
[38]; 2003, E.coli sensitive to ampicillin
  resistance: 4%

From publication PMC7129073 (Clinical Microbiology and Infection, 2015)
